PubChem BioAssay (NCI)
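Exposure lasted 48 hours, with cells grown in 96-well plates and compounds tested at five concentrations. GI50 marks 50% less growth. The concentration for full growth arrest is given as TGI.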

Assays:
Assay in all cases: DTP human tumour cell line panel, 48 h
[1] = tested on: MOLT-4 leukemia
[2] = tested on: HS 578T breast
[3] = tested on: A498 renal
[4] = tested on: HL-60(TB) leukemia
[5] = tested on: SK-MEL-2 melanoma
[6] = tested on: OVCAR-4 ovarian
[7] = tested on: NCI-H522 lung
[8] = tested on: HOP-92 NSCLC
[9] = tested on: M14 melanoma
[10] = tested on: CAKI-1 renal
[11] = tested on: RPMI-8226 leukemia
[12] = tested on: UACC-257 melanoma
[13] = tested on: KM12 colon
[14] = tested on: HOP-62 NSCLC
[15] = tested on: MDA-MB-231 breast
[16] = tested on: OVCAR-3 ovarian
[17] = tested on: SK-OV-3 ovarian
[18] = tested on: BT-549 breast
[19] = tested on: DU-145 prostate
[20] = tested on: MDA-MB-435
[21] = tested on: SNB-75 CNS
[22] = tested on: K-562 leukemia
[23] = tested on: MCF7 breast
[24] = tested on: NCI-H226 lung
[25] = tested on: A549 NSCLC
[26] = tested on: CCRF-CEM leukemia
[27] = tested on: 786-0 renal
[28] = tested on: SW-620 colon
[29] = tested on: SK-MEL-28 melanoma
[30] = tested on: ACHN renal
[31] = tested on: OVCAR-5 ovarian
[32] = tested on: EKVX NSCLC
[33] = tested on: SF-295 CNS
[34] = tested on: MALME-3M melanoma
[35] = tested on: T-47D breast
[36] = tested on: HCC-2998 colon
[37] = tested on: COLO 205 colon
[38] = tested on: UACC-62 melanoma
[39] = tested on: SR leukemia
[40] = tested on: SK-MEL-5 melanoma
[41] = tested on: UO-31 renal
[42] = tested on: SNB-19 CNS
[43] = tested on: NCI-H460 lung
[44] = tested on: U251 CNS
[45] = tested on: HCT-15 colon
[46] = tested on: IGROV1 ovarian
[47] = tested on: TK-10 renal
[48] = tested on: OVCAR-8 ovarian
[49] = tested on: HT29 colon
[50] = tested on: HCT-116 colon
[51] = tested on: NCI/ADR-RES ovarian
[52] = tested on: SF-539 CNS
[53] = tested on: PC-3 prostate
[54] = tested on: SN12C renal
[55] = tested on: SF-268 CNS
[56] = tested on: RXF 393 renal

CCCCCCNC(=O)Oc1ccc(/C(=C(/C)c2ccccc2)c2ccc(OCCN3CCCCCC3)cc2)cc1
GI50 [1]: 3.48 µM
TGI [1]: 25 µM
GI50 [2]: 8.02 µM
TGI [2]: 26.9 µM
GI50 [3]: 15.7 µM
TGI [3]: 29.4 µM
GI50 [4]: 2.79 µM
TGI [4]: 17.7 µM
GI50 [5]: 14.1 µM
TGI [5]: 27.6 µM
GI50 [6]: 10 µM
TGI [6]: 23.4 µM
GI50 [7]: 12.6 µM
TGI [7]: 26 µM
GI50 [8]: 2.9 µM
TGI [8]: 14.9 µM
GI50 [9]: 2.89 µM
TGI [9]: 11.1 µM
GI50 [10]: 2.74 µM
TGI [10]: 11.9 µM
GI50 [11]: 3.99 µM
TGI [11]: 23 µM
GI50 [12]: 3.75 µM
TGI [12]: 14.5 µM
GI50 [13]: 6.31 µM
TGI [13]: 35.6 µM
GI50 [14]: 13 µM
TGI [14]: 26.9 µM
GI50 [15]: 12.8 µM
TGI [15]: 26.8 µM
GI50 [16]: 12 µM
TGI [16]: 28.8 µM
GI50 [17]: 13 µM
TGI [17]: 26.4 µM
GI50 [18]: 8.55 µM
TGI [18]: 21.8 µM
GI50 [19]: 15.7 µM
TGI [19]: 37.7 µM
GI50 [20]: 10.8 µM
TGI [20]: 23.3 µM
GI50 [21]: 9.25 µM
TGI [21]: 21.7 µM
GI50 [22]: 2.87 µM
TGI [22]: > 100 µM
GI50 [23]: 0.172 µM
TGI [23]: 13.1 µM
GI50 [24]: 13.3 µM
TGI [24]: 28.7 µM
GI50 [25]: 12.1 µM
TGI [25]: 26.4 µM
GI50 [26]: 11.5 µM
TGI [26]: > 100 µM
GI50 [27]: 5.42 µM
TGI [27]: 18.7 µM
GI50 [28]: 3.18 µM
TGI [28]: 12.5 µM
GI50 [29]: 5.98 µM
TGI [29]: 19.8 µM
GI50 [30]: 13.3 µM
TGI [30]: 26.2 µM
GI50 [31]: 12.4 µM
TGI [31]: 27 µM
GI50 [32]: 13.2 µM
TGI [32]: 31.2 µM
GI50 [33]: 5.74 µM
TGI [33]: 18.6 µM
GI50 [34]: 7.97 µM
TGI [34]: 21.5 µM
GI50 [35]: 3.07 µM
TGI [35]: 21 µM
GI50 [36]: 11 µM
TGI [36]: 23.5 µM
GI50 [37]: 3.14 µM
TGI [37]: 12.1 µM
GI50 [38]: 9.09 µM
TGI [38]: 22 µM
GI50 [39]: 2.58 µM
TGI [39]: 12 µM
GI50 [40]: 14.2 µM
TGI [40]: 27.6 µM
GI50 [41]: 4.02 µM
TGI [41]: 17 µM
GI50 [42]: 16.6 µM
TGI [42]: 69.8 µM
GI50 [43]: 4.27 µM
TGI [43]: 16.1 µM
GI50 [44]: 7.25 µM
TGI [44]: 20.7 µM
GI50 [45]: 2.83 µM
TGI [45]: 9.61 µM
GI50 [46]: 11.9 µM
TGI [46]: 27.9 µM
GI50 [47]: 16.3 µM
TGI [47]: 30.5 µM
GI50 [48]: 13.1 µM
TGI [48]: 26.6 µM
GI50 [49]: 3.07 µM
TGI [49]: 11.1 µM
GI50 [50]: 4.33 µM
TGI [50]: 16.9 µM
GI50 [51]: 12.3 µM
TGI [51]: 28.8 µM
GI50 [52]: 7.23 µM
TGI [52]: 21 µM
GI50 [53]: 6.2 µM
TGI [53]: 20.4 µM
GI50 [54]: 10.4 µM
TGI [54]: 23.7 µM
GI50 [55]: 12.7 µM
TGI [55]: 29.4 µM
GI50 [56]: 2.63 µM
TGI [56]: 9.11 µM
